Measurements taken from US9023849B2, “Substituted fused imidazoles and pyrazoles and use thereof” (Bayer Intellectual Property GmbH, priority 2012, dated 2015).

Tests used:
[1] = test system: recombinant guanylate cyclase reporter cell line; test: Effect on a recombinant guanylate cyclase reporter cell line; format: cell-based; settings: read-out: MEC (minimal effective concentration)
Experimental: B-2. Effect on a Recombinant Guanylate Cyclase Reporter Cell Line
The cellular action of the inventive compounds is determined on a recombinant guanylate cyclase reporter cell line as described in F. Wunder et al., Anal. Biochem. 339, 104-112 (2005).

rabbit aorta rings = test: Vasorelaxant effect in vitro (rabbit aorta rings precontracted with phenylephrine); settings: Oryctolagus cuniculus, phenylephrine contraction, read-out: IC50 (concentration needed to reduce the magnitude of the phenylephrine contraction by 50%)
Experimental: B-1. Vasorelaxant Effect In Vitro
Rabbits are stunned by a blow to the neck and exsanguinated. The aorta is removed, freed from adhering tissue and divided into rings of width 1.5 mm, which are placed individually under prestress into 5 ml organ baths with carbogen-sparged Krebs-Henseleit solution at 37° C. having the following composition (each mM): sodium chloride: 119; potassium chloride: 4.8; calcium chloride dihydrate: 1; magnesium sulphate heptahydrate: 1.4; potassium dihydrogenphosphate: 1.2; sodium hydrogencarbonate: 25; glucose: 10. The contractile force is determined with Statham UC2 cells, amplified and digitalized using A/D transducers (DAS-1802 HC, Keithley Instruments Munich), and recorded in parallel on linear recorders.
To obtain a contraction, phenylephrine is added to the bath cumulatively in increasing concentration. After several control cycles, the substance to be studied is added in increasing dosage each time in every further run, and the magnitude of the contraction is compared with the magnitude of the contraction attained in the last preceding run. This is used to calculate the concentration needed to reduce the magnitude of the control value by 50% (IC50 value). The standard administration volume is 5 μl; the DMSO content in the bath solution corresponds to 0.1%.

human PDE 5 = human PDE 5 (Homo sapiens (Human), UniProt O76074); test: Inhibition of human phosphodiesterase 5 (PDE 5), SPA assay; format: biochemical; settings: PDE 5 preparation from human platelets, [8-3H]cGMP substrate
Experimental: B-6. Inhibition of Human Phosphodiesterase 5 (PDE 5)
PDE 5 preparations are obtained from human platelets by disruption (Microfluidizer®, 800 bar, 3 passes), followed by centrifugation (75 000 g, 60 min, 4° C.) and ion exchange chromatography of the supernatant on a Mono Q 10/10 column (linear sodium chloride gradient, elution with a 0.2-0.3M solution of sodium chloride in buffer (20 mM Hepes pH 7.2, 2 mM magnesium chloride). Fractions having PDE 5 activity are combined (PDE 5 preparation) and stored at −80° C.
To determine their in vitro action on human PDE 5, the test substances are dissolved in 100% DMSO and serially diluted. Typically, dilution series (1:3) from 200 μM to 0.091 μM are prepared (resulting final concentrations in the test: 4 μM to 0.0018 μM). In each case 2 μl of the diluted substance solutions are placed into the wells of microtitre plates (Isoplate-96/200 W; Perkin Elmer). Subsequently, 50 μl of a dilution of the above-described PDE 5 preparation are added. The dilution of the PDE 5 preparation is selected such that, during the later incubation, less than 70% of the substrate is converted (typical dilution: 1:100; dilution buffer: 50 mM tris/hydrochloric acid pH 7.5, 8.3 mM magnesium chloride, 1.7 mM EDTA, 0.2% BSA). The substrate, [8-^3H]cyclic guanosine-3′,5′-monophosphate (1 μCi/μl; Perkin Elmer) is diluted 1:2000 with assay buffer (50 mM tris/hydrochloric acid pH 7.5, 8.3 mM magnesium chloride, 1.7 mM EDTA) to a concentration of 0.0005 μCi/μl. By addition of 50 μl (0.025 μCi) of the diluted substrate, the enzyme reaction is finally started. The test mixtures are incubated at room temperature for 60 min and the reaction is stopped by adding 25 μl of a suspension of 18 mg/ml yttrium scintillation proximity beads in water (phosphodiesterase beads for SPA assays, RPNQ 0150, Perkin Elmer). The microtitre plates are sealed with a film and left to stand at room temperature for 60 min Subsequently, the plates are analysed for 30 s per well in a Microbeta scintillation counter (Perkin Elmer). IC50 values are determined using the graphic plot of the substance concentration against percentage PDE 5 inhibition.

Structure (SMILES)	minimal effective concentration [1]	IC50 (rabbit aorta rings)	IC50 (human PDE 5)
CC1(C)C(=O)Nc2nc(-c3nn(Cc4ccccc4F)c4c3CCC4)ncc21 [Example 11, 2-[1-(2-Fluorobenzyl)-1,4,5,6-tetrahydrocyclopenta[c]pyrazol-3-yl]-5,5-dimethyl-5,7-dihydro-6H-pyrrolo[2,3-d]pyrimidin-6-one]	0.3 µM	601 nM	4000 nM
CC1(C)C(=O)Nc2nc(-c3nn(CCC(F)(F)C(F)(F)F)c4cc(Cl)ccc34)nnc21 [Example 26, 3-[6-Chloro-1-(3,3,4,4,4-pentafluorobutyl)-1H-indazol-3-yl]-7,7-dimethyl-5,7-dihydro-6H-pyrrolo[2,3-e][1,2,4]triazin-6-one]	0.3 µM	794 nM	95 nM
CC1(C)C(=O)Nc2nc(-n3nc(Cc4ccccc4F)c4cc(F)ccc43)nnc21 [Example 21, 3-[5-Fluoro-3-(2-fluorobenzyl)-1H-indazol-1-yl]-7,7-dimethyl-5,7-dihydro-6H-pyrrolo[2,3-e][1,2,4]triazin-6-one]	0.1 µM	1130 nM	75 nM
CC1(C)C(=O)Nc2nc(-n3nc(Cc4ccccc4F)c4ncc(F)cc43)nnc21 [Example 9, 3-[6-Fluoro-3-(2-fluorobenzyl)-1H-pyrazolo[4,3-b]pyridin-1-yl]-7,7-dimethyl-5,7-dihydro-6H-pyrrolo[2,3-e][1,2,4]triazin-6-one]	0.1 µM	641 nM	85 nM
CCCc1nc(-n2nc(Cc3ccccc3F)c3ccccc32)nc2c1C(C)(C)C(=O)N2 [Example 28, 2-[3-(2-Fluorobenzyl)-1H-indazol-1-yl]-5,5-dimethyl-4-propyl-5,7-dihydro-6H-pyrrolo[2,3-d]-pyrimidin-6-one]	1 µM	10000 nM	450 nM
CC1(C)C(=O)Nc2nc(-n3nc(Cc4ccccc4F)c4ccccc43)nc(I)c21 [Example 3, 2-[3-(2-Fluorobenzyl)-1H-indazol-1-yl]-4-iodo-5,5-dimethyl-5,7-dihydro-6H-pyrrolo[2,3-d]pyrimidin-6-one]	0.3 µM	–	690 nM
CC1(C)C(=O)Nc2nc(-n3nc(Cc4c(F)ccc(F)c4F)c4cc(Cl)ccc43)ncc21 [Example 2, 2-[5-Chloro-3-(2,3,6-trifluorobenzyl)-1H-indazol-1-yl]-5,5-dimethyl-5,7-dihydro-6H-pyrrolo[2,3-d]pyrimidin-6-one]	0.065 µM	5160 nM	3700 nM
CC1(C)C(=O)Nc2nc(-n3nc(CCC(F)(F)C(F)(F)F)c4cc(F)ccc43)nnc21 [Example 22, 3-[5-Fluoro-3-(3,3,4,4,4-pentafluorobutyl)-1H-indazol-1-yl]-7,7-dimethyl-5,7-dihydro-6H-pyrrolo[2,3-e][1,2,4]triazin-6-one]	1 µM	7730 nM	530 nM
Cc1ncc2c(-c3ncc4c(n3)NC(=O)C4(C)C)nn(Cc3cccc(F)c3F)c2n1 [Example 17, 2-[1-(2,3-Difluorobenzyl)-6-methyl-1H-pyrazolo[3,4-d]pyrimidin-3-yl]-5,5-dimethyl-5,7-dihydro-6H-pyrrolo[2,3-d]pyrimidin-6-one]	0.3 µM	292 nM	230 nM
Cc1ncc2c(-c3ncc4c(n3)NC(=O)C4(C)C)nn(Cc3ccccc3F)c2n1 [Example 15, 2-[1-(2-Fluorobenzyl)-6-methyl-1H-pyrazolo[3,4-d]pyrimidin-3-yl]-5,5-dimethyl-5,7-dihydro-6H-pyrrolo[2,3-d]pyrimidin-6-one]	0.1 µM	78 nM	310 nM
CC1(C)C(=O)Nc2nc(-n3nc(Cc4ccccc4F)c4ccccc43)ncc21 [Example 5, 2-[3-(2-Fluorobenzyl)-1H-indazol-1-yl]-5,5-dimethyl-5,7-dihydro-6H-pyrrolo[2,3-d]pyrimidin-6-one]	0.03 µM	22 nM	440 nM
CC1(C)C(=O)Nc2nc(-c3nn(Cc4ccccc4F)c4ncncc34)nnc21 [Example 19, 3-[1-(2-Fluorobenzyl)-1H-pyrazolo[3,4-d]pyrimidin-3-yl]-7,7-dimethyl-5,7-dihydro-6H-pyrrolo[2,3-e][1,2,4]triazin-6-one]	0.1 µM	124 nM	370 nM
CC1(C)C(=O)Nc2nc(-n3nc(Cc4ccccc4F)c4cc(F)ccc43)nc(I)c21 [Example 6, 2-[5-Fluoro-3-(2-fluorobenzyl)-1H-indazol-1-yl]-4-iodo-5,5-dimethyl-5,7-dihydro-6H-pyrrolo[2,3-d]pyrimidin-6-one]	0.766 µM	–	690 nM
Cc1ncc2c(-c3nnc4c(n3)NC(=O)C4(C)C)nn(Cc3cccc(F)c3F)c2n1 [Example 18, 3-[1-(2,3-Difluorobenzyl)-6-methyl-1H-pyrazolo[3,4-d]pyrimidin-3-yl]-7,7-dimethyl-5,7-dihydro-6H-pyrrolo[2,3-e][1,2,4]triazin-6-one]	0.3 µM	1140 nM	16 nM
CCc1nc(-n2nc(Cc3ccccc3F)c3cc(F)ccc32)nc2c1C(C)(C)C(=O)N2 [Example 23, 4-Ethyl-2-[5-fluoro-3-(2-fluorobenzyl)-1H-indazol-1-yl]-5,5-dimethyl-5,7-dihydro-6H-pyrrolo[2,3-d]pyrimidin-6-one]	1 µM	8060 nM	440 nM
CC1(C)C(=O)Nc2nc(-c3nn(Cc4ccccc4F)c4c3CCC4)nnc21 [Example 12, 3-[1-(2-Fluorobenzyl)-1,4,5,6-tetrahydrocyclopenta[c]pyrazol-3-yl]-7,7-dimethyl-5,7-dihydro-6H-pyrrolo[2,3-e][1,2,4]triazin-6-one]	1 µM	–	3500 nM
Cc1nc(-n2nc(Cc3ccccc3F)c3cc(F)ccc32)nc2c1C(C)(C)C(=O)N2 [Example 27, 2-[5-Fluoro-3-(2-fluorobenzyl)-1H-indazol-1-yl]-4,5,5-trimethyl-5,7-dihydro-6H-pyrrolo[2,3-d]pyrimidin-6-one]	0.3 µM	1670 nM	340 nM
CC1(C)C(=O)Nc2nc(-c3nn(Cc4ccccc4F)c4cc(Cl)ccc34)nnc21 [Example 24, 3-[6-Chloro-1-(2-fluorobenzyl)-1H-indazol-3-yl]-7,7-dimethyl-5,7-dihydro-6H-pyrrolo[2,3-e][1,2,4]triazin-6-one]	0.1 µM	–	25 nM
Cc1ncc2c(-c3nnc4c(n3)NC(=O)C4(C)C)nn(Cc3ccccc3F)c2n1 [Example 16, 3-[1-(2-Fluorobenzyl)-6-methyl-1H-pyrazolo[3,4-d]pyrimidin-3-yl]-7,7-dimethyl-5,7-dihydro-6H-pyrrolo[2,3-e][1,2,4]triazin-6-one]	0.3 µM	340 nM	64 nM
CC1(C)C(=O)Nc2nc(-c3nn(Cc4ccccc4F)c4c3CCC4)nc(I)c21 [Example 10, 2-[1-(2-Fluorobenzyl)-1,4,5,6-tetrahydrocyclopenta[c]pyrazol-3-yl]-4-iodo-5,5-dimethyl-5,7-dihydro-6H-pyrrolo[2,3-d]pyrimidin-6-one]	1 µM	–	480 nM
CC1(C)C(=O)Nc2nc(-c3nn(Cc4ncccc4F)c4cc(Cl)ccc34)nnc21 [Example 25, 3-[6-Chloro-1-[(3-fluoropyridin-2-yl)methyl]-1H-indazol-3-yl]-7,7-dimethyl-5,7-dihydro-6H-pyrrolo[2,3-e][1,2,4]triazin-6-one]	0.3 µM	–	160 nM
